Experimental data reported in patent US20240245673A1, “Papain-like protease (PLpro) inhibitors” (Pfizer Inc., priority 2022, published 2024).
Read-outs that look alike come from different tables or passages of the source.

Target: SARS-CoV-2 Papain like protease (PLpro) (Severe acute respiratory syndrome coronavirus 2 (2019-nCoV) (SARS-CoV-2), UniProt P0DTD1)
Assay: Papain Like Protease (PLpro) biochemical assay with profluorogenic substrate Z-RLRGG-AMC
Details: SARS-CoV-2 PLpro 6.25 nM, 25 μM Z-RLRGG-AMC substrate, 60 minute reaction

Row | SMILES | IC50 (read-out: IC50) | IC50 (IC50 (μM))
1 | Cc1cc(C[S+]([O-])Cc2nccn2C)ccc1C(=O)N[C@H](C)c1cc(-c2cnn(C)c2)nc2ccccc12 (stereo partly drawn) [Example 283, 2-methyl-4-((((1-methyl-1H-imidazol-2-yl)methyl)sulfinyl)methyl)-N—((R)-1-(2-(1-methyl-1H-pyrazol-4-yl)quinolin-4-yl)ethyl)benzamide] | 0.005 µM | 
2 | Cc1cnc(N2CC3CCC2CN3)cc1C(=O)NC1(c2cc(-c3cnn(C)c3)nc3ccccc23)CC1 (stereo not drawn) [Example 284, 2-(2,5-diazabicyclo[2.2.2]octan-2-yl)-5-methyl-N-(1-(2-(1-methyl-1H-pyrazol-4-yl)quinolin-4-yl)cyclopropyl)isonicotinamide] | 0.006 µM | 
3 | Cc1cnc(N2CC3CCC(C2)N3)cc1C(=O)NC1(c2cc(-c3cnn(C)c3)nc3ccccc23)CC1 [Example 285, 2-(3,8-diazabicyclo[3.2.1]octan-3-yl)-5-methyl-N-(1-(2-(1-methyl-1H-pyrazol-4-yl)quinolin-4-yl)cyclopropyl)isonicotinamide] |  | 0.003 µM
4 | Cc1cnc(N2CC3CCC(C2)N3C)cc1C(=O)NC1(c2cc(-c3cnn(C)c3)nc3ccccc23)CC1 [Example 287, 5-methyl-N-(1-(2-(1-methyl-1H-pyrazol-4-yl)quinolin-4-yl)cyclopropyl)-2-(8-methyl-3,8-diazabicyclo[3.2.1]octan-3-yl)isonicotinamide] |  | 0.002 µM
5 | Cc1ccc(N2CC3CC(C2)N3)cc1C(=O)NC1(c2cc(-c3cnn(C)c3)nc3ccccc23)CC1 [Example 289, 5-(3,6-diazabicyclo[3.1.1]heptan-3-yl)-2-methyl-N-(1-(2-(1-methyl-1H-pyrazol-4-yl)quinolin-4-yl)cyclopropyl)benzamide] |  | 0.001 µM
6 | Cc1ccc(N2CC3CC(C2)N3C)cc1C(=O)NC1(c2cc(-c3cnn(C)c3)nc3ccccc23)CC1 [Example 290, 2-methyl-N-(1-(2-(1-methyl-1H-pyrazol-4-yl)quinolin-4-yl)cyclopropyl)-5-(6-methyl-3,6-diazabicyclo[3.1.1]heptan-3-yl)benzamide] |  | 0.001 µM
7 | Cc1cc(COCc2nccn2C)ccc1C(=O)N[C@H](C)c1cc(-c2cnn(C)c2)nc2ccccc12 [Example 291, (R)-2-methyl-4-(((1-methyl-1H-imidazol-2-yl)methoxy)methyl)-N-(1-(2-(1-methyl-1H-pyrazol-4-yl)quinolin-4-yl)ethyl)benzamide] | 0.001 µM | 
8 | Cc1ccc(N2CCN(C)CC2)cc1C(=O)NC1(c2cc(-c3ccc(C(=O)N(C)C)[nH]3)cc3ccccc23)CC1 [Example 292, N,N-dimethyl-5-(4-(1-(2-methyl-5-(4-methylpiperazin-1-yl)benzamido)cyclopropyl)naphthalen-2-yl)-1H-pyrrole-2-carboxamide] | < 0.001 µM | 
9 | Cc1cc(CC(=O)Nc2ncsc2C)ccc1C(=O)N[C@H](C)c1cc(-c2cnn(C)c2)nc2ccccc12 [Example 298, (R)-2-methyl-N-(1-(2-(1-methyl-1H-pyrazol-4-yl)quinolin-4-yl)ethyl)-4-(2-((5-methylthiazol-4-yl)amino)-2-oxoethyl)benzamide] | < 0.001 µM | 
10 | Cc1cc(C(O)C(=O)Nc2cscn2)ccc1C(=O)N[C@H](C)c1cc(-c2cnn(C)c2)nc2ccccc12 (stereo partly drawn) [Example 301, 4-(1-hydroxy-2-oxo-2-(thiazol-4-ylamino)ethyl)-2-methyl-N-((R)-1-(2-(1-methyl-1H-pyrazol-4-yl)quinolin-4-yl)ethyl)benzamide] | 0.001 µM | 
11 | Cc1cc(C(NCc2cscn2)C(F)(F)F)ccc1C(=O)N[C@H](C)c1cc(-c2cnn(C)c2)nc2ccccc12 (stereo partly drawn) [Example 310, 2-methyl-N-((R)-1-(2-(1-methyl-1H-pyrazol-4-yl)quinolin-4-yl)ethyl)-4-(2,2,2-trifluoro-1-((thiazol-4-ylmethyl)amino)ethyl)benzamide] | 0.003 µM | 
12 | Cc1cc(CC(=O)Nc2cscn2)ccc1C(=O)NC1(c2cc(-c3cnn(C)c3)nc3ccccc23)CC1 [Example 313, 2-methyl-N-(1-(2-(1-methyl-1H-pyrazol-4-yl)quinolin-4-yl)cyclopropyl)-4-(2-oxo-2-(thiazol-4-ylamino)ethyl)benzamide] | 0.004 µM | 
13 | Cc1cc(C(=O)NC2(c3cscn3)CC2)ccc1C(=O)N[C@H](C)c1cc(-c2cnn(C)c2)nc2ccccc12 [Example 314, (R)-2-methyl-N1-(1-(2-(1-methyl-1H-pyrazol-4-yl)quinolin-4-yl)ethyl)-N4-(1-(thiazol-4-yl)cyclopropyl)terephthalamide] | 0.002 µM | 
14 | Cc1cc(C(=O)NCc2ncoc2C)ccc1C(=O)N[C@H](C)c1cc(-c2cnn(C)c2)nc2ccccc12 [Example 317, (R)-2-methyl-N1-(1-(2-(1-methyl-1H-pyrazol-4-yl)quinolin-4-yl)ethyl)-N4-((5-methyloxazol-4-yl)methyl)terephthalamide] | 0.006 µM | 
15 | Cc1cc(C(C)OCc2cscn2)ncc1C(=O)N[C@H](C)c1cc(-c2cnn(C)c2)nc2ccccc12 (stereo partly drawn) [Example 321, 4-methyl-N—((R)-1-(2-(1-methyl-1H-pyrazol-4-yl)quinolin-4-yl)ethyl)-6-(1-(thiazol-4-ylmethoxy)ethyl)nicotinamide] | 0.003 µM | 
16 | Cc1cc(C(C)OCc2nccn2C)ncc1C(=O)N[C@H](C)c1cc(-c2cnn(C)c2)nc2ccccc12 (stereo partly drawn) [Example 322, 4-methyl-6-(1-((1-methyl-1H-imidazol-2-yl)methoxy)ethyl)-N-((R)-1-(2-(1-methyl-1H-pyrazol-4-yl)quinolin-4-yl)ethyl)nicotinamide] | 0.007 µM | 
17 | Cc1cc(COCc2cscn2)ccc1C(=O)NC1(c2cc(-c3cnn(C)c3)nc3ccccc23)CC1 [Example 323, 2-methyl-N-(1-(2-(1-methyl-1H-pyrazol-4-yl)quinolin-4-yl)cyclopropyl)-4-((thiazol-4-ylmethoxy)methyl)benzamide] | < 0.001 µM | 
18 | Cc1cc(COCc2cscn2)ccc1C(=O)NC1(c2cc(-c3cnn(CCS(C)(=O)=O)c3)nc3ccccc23)CC1 [Example 328, 2-methyl-N-(1-(2-(1-(2-(methylsulfonyl)ethyl)-1H-pyrazol-4-yl)quinolin-4-yl)cyclopropyl)-4-((thiazol-4-ylmethoxy)methyl)benzamide] | < 0.001 µM | 
19 | Cc1cc(COCc2cscn2)ccc1C(=O)NC1(c2cc(-c3cc(C(=O)N(C)CCN(C)C)n[nH]3)nc3ccccc23)CC1 [Example 329, N-(2-(dimethylamino)ethyl)-N-methyl-5-(4-(1-(2-methyl-4-((thiazol-4-ylmethoxy)methyl)benzamido)cyclopropyl)quinolin-2-yl)-1H-pyrazole-3-carboxamide] | < 0.001 µM | 
20 | Cc1cc(COCc2ncsc2CO)ccc1C(=O)NC1(c2cc(-c3cnn(C)c3)nc3ccccc23)CC1 [Example 330, 4-(((5-(hydroxymethyl)thiazol-4-yl)methoxy)methyl)-2-methyl-N-(1-(2-(1-methyl-1H-pyrazol-4-yl)quinolin-4-yl)cyclopropyl)benzamide] | < 0.001 µM | 
21 | Cc1cc(COCc2cscn2)ccc1C(=O)NC1(c2cc(-c3cnn(CS(C)(=O)=O)c3)nc3ccccc23)CC1 [Example 341, 2-methyl-N-(1-(2-(1-((methylsulfonyl)methyl)-1H-pyrazol-4-yl)quinolin-4-yl)cyclopropyl)-4-((thiazol-4-ylmethoxy)methyl)benzamide] | < 0.001 µM | 
22 | Cc1cc(COCc2cscn2)ccc1C(=O)NC1(c2cc(-c3cnn(CC(=O)N(C)C)c3)nc3ccccc23)CC1 [Example 342, N-(1-(2-(1-(2-(dimethylamino)-2-oxoethyl)-1H-pyrazol-4-yl)quinolin-4-yl)cyclopropyl)-2-methyl-4-((thiazol-4-ylmethoxy)methyl)benzamide] | < 0.001 µM | 
23 | Cc1cc(COCc2cscn2)ccc1C(=O)NC1(c2cc(-c3cc(C(=O)N(C)C)n[nH]3)nc3ccccc23)CC1 [Example 343, N,N-dimethyl-5-(4-(1-(2-methyl-4-((thiazol-4-ylmethoxy)methyl)benzamido)cyclopropyl)quinolin-2-yl)-1H-pyrazole-3-carboxamide] | < 0.001 µM | 
24 | Cc1cc(COCc2cocn2)ccc1C(=O)NC1(c2cc(-c3cnn(C)c3)nc3ccccc23)CC1 [Example 344, 2-methyl-N-(1-(2-(1-methyl-1H-pyrazol-4-yl)quinolin-4-yl)cyclopropyl)-4-((oxazol-4-ylmethoxy)methyl)benzamide] | < 0.001 µM | 
25 | Cc1cc(COCc2cocn2)ccc1C(=O)NC1(c2cc(-c3cnn(C)c3)cc3ncccc23)CC1 [Example 345, 2-methyl-N-(1-(7-(1-methyl-1H-pyrazol-4-yl)quinolin-5-yl)cyclopropyl)-4-((oxazol-4-ylmethoxy)methyl)benzamide] | < 0.001 µM | 
26 | Cc1cc(COCc2cocn2)ccc1C(=O)NC1(c2cc(-c3cc(C(=O)N(C)C)n[nH]3)nc3ccccc23)CC1 [Example 346, N,N-dimethyl-5-(4-(1-(2-methyl-4-((oxazol-4-ylmethoxy)methyl)benzamido)cyclopropyl)quinolin-2-yl)-1H-pyrazole-3-carboxamide] | < 0.001 µM | 
27 | CNC(=O)c1cc(-c2cc(C3(NC(=O)c4ccc(COCc5cscn5)cc4C)CC3)c3ccccc3n2)[nH]n1 [Example 347, N-methyl-5-(4-(1-(2-methyl-4-((thiazol-4-ylmethoxy)methyl)benzamido)cyclopropyl)quinolin-2-yl)-1H-pyrazole-3-carboxamide] | < 0.001 µM | 
28 | Cc1ccc2c(C3(NC(=O)c4ccc(COCc5cocn5)cc4C)CC3)cc(-c3cnn(C)c3)cc2n1 [Example 348, 2-methyl-N-(1-(2-methyl-7-(1-methyl-1H-pyrazol-4-yl)quinolin-5-yl)cyclopropyl)-4-((oxazol-4-ylmethoxy)methyl)benzamide] | < 0.001 µM | 
29 | Cc1cc(COCc2cscn2)ccc1C(=O)NC1(c2cc(-c3cc(C(N)=O)n[nH]3)nc3ccccc23)CC1 [Example 349, 5-(4-(1-(2-methyl-4-((thiazol-4-ylmethoxy)methyl)benzamido)cyclopropyl)quinolin-2-yl)-1H-pyrazole-3-carboxamide] | < 0.001 µM | 
30 | Cc1cc(COCc2cocn2)ccc1C(=O)NC1(c2cc(-c3cc(C(=O)N(C)C)n[nH]3)cc3ncccc23)CC1 [Example 350, N,N-dimethyl-5-(5-(1-(2-methyl-4-((oxazol-4-ylmethoxy)methyl)benzamido)cyclopropyl)quinolin-7-yl)-1H-pyrazole-3-carboxamide] | < 0.001 µM | 
